Earlier results, collected in patent EP1121935B1, “Pharmaceutical composition containing a small or medium size peptide” (Patents Exploitation Company B.V., priority 2000, dated 2001).

Experiments:
[1] = solutions free from preservative; polystyrene, polypropylene and glass tubes; 24 hours at room temperature
[2] = system: nasal ciliar motility; details: reported by Hofmann T. et al., 1998

Substance | loss of active principle because of the adsorption by the walls [1] | effect on nasal ciliar motility [2]
1-(3-mercaptopropanoic acid)-8-D-argininevasopressin [desmopressin] | about the half | –
benzalkonium chloride | – | irreversible suppression of the nasal ciliar motility
